# Source: patent US20210371351A1, “MIXTURES COMPRISING AT LEAST TWO DIFFERENT NITRIFICATION INHIBITORS SELECTED FROM 2-(3,4-DIMETHYL-1H-PYRAZOL-1-YL)SUCCINIC ACID (DMPSA), 3,4-DIMETHYL PYRAZOLIUM GLYCOLATE (DMPG) AND OTHER COMPOUNDS” (BASF SE, priority 2017, published 2021)
# System: nitrification
# Test: Example 5: soil incubation in bottles with ammonium sulfate, DMPSA, DCD or mixtures, 5 to 15° C., 0 up to 56 days; recovery NH4 (RE/RC), net recovery NH4 (NE/NC), inhibition of NO3 formation (IE/IC, Böhland; Colby)
# Parameters: unit not given here
# Experimental: 100 g soil is filled into 500 ml plastic bottles (e.g. soil sampled from the field) and is moistened to 50% water holding capacity. The soil is incubated at 20° C. for two weeks to activate the microbial biomass. 1 ml test solution, containing the compositions and mixtures of the invention in the appropriate concentration, or DMSO and 5 to 10 mg nitrogen in the form of ammoniumsulfate-N is added to the soil and everything mixed well. Bottles are capped but loosely to allow air exchange. The bottles are then incubated at 5 to 15° C. for 0 up to 56 days.
# For analysis, 300 ml of a 1% K2SO4-solution is added to the bottle containing the soil and shaken for 2 hrs in a horizontal shaker at 150 rpm. Then the whole solution is filtered through a Macherey-Nagel Filter MN 807′/. Ammonium and nitrate content is then analyzed in the filtrate in an autoanalyzer at 550 nm (Merck, AA11).
# The Böhland equation is described in Böhland, H., et al. (1973) “Mittel zur Hemmung bzw. Regelung der Nitrifikation von Ammoniumstickstoff in Kulturböden”. DDR-Wirtschaftspatent (Economic patent of the German Democratic Republic) C 05c 169 727. Cited by: Peschke, H. (1985) “Zur Bewertung der inhibierenden Wirkung von Nitrifiziden im Boden”, Zbl. Mikrobiol. 140, pp. 583-588.
substance,measurement,setting,value
"2-(3,4-dimethyl-1H-pyrazol-1-yl)succinic acid and/or 2-(4,5-dimethyl-1H-pyrazol-1-yl)succinic acid [DMPSA]","IE (inhibition of NO3 formation, Böhland)","IT10° C., DAT28, % a.i. DMPSA 0.30, DCD 0.05",51
same,"IE (inhibition of NO3 formation, Böhland)","IT10° C., DAT28, % a.i. DMPSA 0.50, DCD 0.08",46
same,IE inhibition of NO3 formation,"IT10° C., DAT28, % a.i.: DMPSA 0.50, DCD 0.0125, DMPSA + DCD 0.50 + 0.0125 (40:1)",62
same,IE inhibition of NO3 formation,"IT10° C., DAT28, % a.i.: DMPSA 0.50, DCD 0.0143, DMPSA + DCD 0.50 + 0.0143 (35:1)",62
same,IE inhibition of NO3 formation,"IT10° C., DAT28, % a.i.: DMPSA 0.50, DCD 0.0167, DMPSA + DCD 0.50 + 0.0167 (30:1)",62
same,IE inhibition of NO3 formation,"IT10° C., DAT30, % a.i.: DMPSA 0.5, DCD 1, DMPSA + DCD 0.5 + 1 (1:2)",79
same,IE inhibition of NO3 formation,"IT10° C., DAT30, % a.i.: DMPSA 0.5, DCD 3, DMPSA + DCD 0.5 + 3 (1:6)",79
same,"IE (inhibition of NO3 formation, Böhland)","IT10° C., DAT42, % a.i. DMPSA 0.25, DCD 1",66
same,"IE (inhibition of NO3 formation, Böhland)","IT10° C., DAT42, % a.i. DMPSA 0.25, DCD 3",66
same,"IE (inhibition of NO3 formation, Böhland)","IT10° C., DAT42, % a.i. DMPSA 0.30, DCD 0.05",46
same,"IE (inhibition of NO3 formation, Böhland)","IT10° C., DAT42, % a.i. DMPSA 0.50, DCD 0.08",52
same,"IE (inhibition of NO3 formation, Böhland)","IT10° C., DAT56, % a.i. DMPSA 0.25, DCD 1",65
same,"IE (inhibition of NO3 formation, Böhland)","IT10° C., DAT56, % a.i. DMPSA 0.25, DCD 3",65
same,"IE (inhibition of NO3 formation, Böhland)","IT10° C., DAT56, % a.i. DMPSA 0.30, DCD 0.05",47
same,"IE (inhibition of NO3 formation, Böhland)","IT10° C., DAT56, % a.i. DMPSA 0.50, DCD 0.08",47
same,IE inhibition of NO3 formation,"IT15° C., DAT10, % a.i.: DMPSA 0.5, DCD 1, DMPSA + DCD 0.5 + 1 (1:2)",50
same,IE inhibition of NO3 formation,"IT15° C., DAT10, % a.i.: DMPSA 0.5, DCD 3, DMPSA + DCD 0.5 + 3 (1:6)",50
same,IE inhibition of NO3 formation,"IT15° C., DAT20, % a.i.: DMPSA 0.5, DCD 1, DMPSA + DCD 0.5 + 1 (1:2)",74
same,IE inhibition of NO3 formation,"IT15° C., DAT20, % a.i.: DMPSA 0.5, DCD 3, DMPSA + DCD 0.5 + 3 (1:6)",74
same,"IE (inhibition of NO3 formation, Böhland)","IT15° C., DAT28, % a.i. DMPSA 0.25, DCD 1",70
same,"IE (inhibition of NO3 formation, Böhland)","IT15° C., DAT28, % a.i. DMPSA 0.25, DCD 3",70
same,IE inhibition of NO3 formation,"IT15° C., DAT28, % a.i.: DMPSA 0.30, DCD 0.05, DMPSA + DCD 0.30 + 0.05 (6:1)",39
same,IE inhibition of NO3 formation,"IT15° C., DAT28, % a.i.: DMPSA 0.50, DCD 0.0125, DMPSA + DCD 0.50 + 0.0125 (40:1)",44
same,IE inhibition of NO3 formation,"IT15° C., DAT28, % a.i.: DMPSA 0.50, DCD 0.0143, DMPSA + DCD 0.50 + 0.0143 (35:1)",44
same,IE inhibition of NO3 formation,"IT15° C., DAT28, % a.i.: DMPSA 0.50, DCD 0.0167, DMPSA + DCD 0.50 + 0.0167 (30:1)",44
same,IE inhibition of NO3 formation,"IT15° C., DAT28, % a.i.: DMPSA 0.50, DCD 0.08, DMPSA + DCD 0.50 + 0.08 (6.25:1)",40
same,IE inhibition of NO3 formation,"IT15° C., DAT30, % a.i.: DMPSA 0.5, DCD 1, DMPSA + DCD 0.5 + 1 (1:2)",74
same,IE inhibition of NO3 formation,"IT15° C., DAT30, % a.i.: DMPSA 0.5, DCD 3, DMPSA + DCD 0.5 + 3 (1:6)",74
same,"IE (inhibition of NO3 formation, Böhland)","IT15° C., DAT42, % a.i. DMPSA 0.25, DCD 1",55
same,"IE (inhibition of NO3 formation, Böhland)","IT15° C., DAT42, % a.i. DMPSA 0.25, DCD 3",55
same,IE inhibition of NO3 formation,"IT15° C., DAT42, % a.i.: DMPSA 0.30, DCD 0.05, DMPSA + DCD 0.30 + 0.05 (6:1)",29
same,IE inhibition of NO3 formation,"IT15° C., DAT42, % a.i.: DMPSA 0.50, DCD 0.08, DMPSA + DCD 0.50 + 0.08 (6.25:1)",44
same,"IE (inhibition of NO3 formation, Böhland)","IT15° C., DAT56, % a.i. DMPSA 0.25, DCD 1",35
same,"IE (inhibition of NO3 formation, Böhland)","IT15° C., DAT56, % a.i. DMPSA 0.25, DCD 3",35
same,IE inhibition of NO3 formation,"IT15° C., DAT56, % a.i.: DMPSA 0.30, DCD 0.05, DMPSA + DCD 0.30 + 0.05 (6:1)",27
same,IE inhibition of NO3 formation,"IT15° C., DAT56, % a.i.: DMPSA 0.50, DCD 0.08, DMPSA + DCD 0.50 + 0.08 (6.25:1)",27
